Reference: patent publication US20140275234A1, “COMPOSITIONS AND METHODS OF USING CRYSTALLINE FORMS OF WORTMANNIN ANALOGS” (ONCOTHYREON INC., priority 2010, published 2014)

Legend:
[1] = Initial solvent screen, visual dissolution on adding solvent in 50 μL portions; format: physicochemical; conditions: for Soluble: RT
Method: This initial solvent screen of PX-866 in 18 solvents was executed to select appropriate solvents for slurry experiments. Approximately 1-2 mg of the material was placed in 2 dram glass vials and the chosen solvents were added in 50 μL portions to determine the minimum amount of solvent needed for dissolution. The vials were shaken at ambient temperature and visually inspected between each addition to determine if complete dissolution had taken place.
To estimate the ratio of primary solvent to anti-solvent necessary for use in the slurry experiments, heptane or water was then added to the dissolved PX-866 in […], portions until a turbid solution was formed or solids precipitated out. […] The exceptions occurred when MeCN and AcOH were used as the primary solvent as the product oiled out upon anti-solvent addition.

[2] = Solubility Screening Test I and II, HPLC of supernatant; format: physicochemical
Method: For each solvent, a 100 μL glass crimp-top vial was charged with ˜10 mg of PX-866 and sealed. By syringe, 2 parts of the appropriate solvent was added. If PX-866 dissolved completely, no further work was done. If necessary, more solvent was added to obtain a supernatant. The crimped vial was sonicated for 15 minutes and then centrifuged for 30 seconds. 1.0 μL of the supernatant was removed by syringe and added to a sealed HPLC vial containing 500 μL of acetonitrile. The same saturated solution was then heated for 30 minutes to a set point of 50° C., centrifuged again, and a second HPLC vial was prepared with 1.0 μL of the supernatant at 50° C. In the case of toluene, anisole, o-xylene, propyl acetate, 4-methyl-2-pentanone, and 1-pentanol the room temperature supernatant was transferred to a clean vial and cooled down to 0° C., and then −20° C. For each temperature, an HPLC vial was prepared with 1.0 μL of the supernatant. HPLC samples were run using the method described below and the 254 nm AUC was plotted on a calibration curve to obtain solubility data.
The samples that crystallized were cooled to 0° C. and subsequently −20° C. to acquire two additional temperature points. Solubility in the aliphatic solvents (propyl acetate, 4-methyl-2-pentanone, and 1-pentanol) decreased drastically with temperature from RT to −20° C.

[3] = Crystallization study in anisole, PX-866 quantified in supernatant; format: physicochemical
Method: 53 mg of PX-866 was placed in a 2 mL flat bottom vial and then added ˜940 μL (18 vol.) of anisole at RT. The supernatant was transferred to another vial and cooled down first to 4° C., and then to −20° C. (PX-866 quantified in aliquots of the supernatant at both temperatures). The resulted solids were dried under a stream of nitrogen and further dried under vacuum at RT for 16 hours, then dried under vacuum at 40° C. for 16 hours. PX-866 concentration in supernatant: RT: 9.9 mg/mL; 4° C.: 7.0 mg/mL; −20° C.: 6.2 mg/mL.

[4] = Formulation and handling studies of amorphous and crystalline forms; format: physicochemical
Source text: In some embodiments, crystalline forms of Compound 1 and/or analogs thereof show less variability in vitro dissolution profiles as compared to the amorphous form. In some instances, crystalline forms of Compound 1 and/or analogs thereof have better flowability as compared to the amorphous form.

[5] = Water slurry at ambient temperature; format: physicochemical; conditions: 0.5 g slurry in deionized water
Method: An initial solvent screen was performed on PX-866 to determine appropriate primary solvents and anti-solvents. Slurries and several precipitations were then performed utilizing several primary solvents and anti-solvents at 50 mg scale. […] The water slurry was then scaled up to 0.5 g and performed at ambient temperature. Since there was a concern for degradation taking place during the slurry at ambient temperature an additional slurry was performed on 0.5 g scale at 10° C. in an attempt to minimize any potential degradation.

[6] = tested on: phosphatidylinositol-3-kinase (PI-3K); conditions: cited from earlier work
[7] = as described in WO 2011/153488 and WO 2011/153495; cited from earlier work
pulmonary fibrosis = conditions: as described in WO 2010/118250; cited from earlier work
[8] = aqueous solutions at either 37° C. or 0° C. at neutral pH; cited from earlier work

C=CCN(/C=C1/C(=O)O[C@H](COC)[C@@]2(C)C1=C(O)C(=O)C1=C2[C@H](OC(C)=O)C[C@]2(C)C(=O)CC[C@@H]12)CC=C [PX-866, (4S,4aR,5R,6aS,9aR, Z)-1-((diallylamino)methylene)-11-hydroxy-4-(methoxymethyl)-4-a,6a-dimethyl-2,7,10-trioxo-1,2,4,4a,5,6,6a,7,8,9,9a,10-dodecahydroindeno[4,5-h]isochromen-5-yl acetate]
Soluble ([1]; AcOH, vial conc. 48.0 mg/mL): Yes | Soluble ([1]; Acetone, vial conc. 38.0 mg/mL): Yes | Soluble ([1]; Acetone, vial conc. 102.0 mg/mL (Table 2A)): Yes | Soluble ([1]; DCM, vial conc. 48.0 mg/mL): Yes | Soluble ([1]; DMF, vial conc. 56.0 mg/mL): Yes | Soluble ([1]; Dioxane, vial conc. 38.0 mg/mL): Yes | Soluble ([1]; EtOAc, vial conc. 38.0 mg/mL): Yes | Soluble ([1]; EtOH, vial conc. 56.0 mg/mL): Yes | Soluble ([1]; EtOH, vial conc. 164.0 mg/mL (Table 2A)): Yes | Soluble ([1]; Heptane, vial conc. 0.4 mg/mL): No | Soluble ([1]; IPA, vial conc. 28.0 mg/mL): Yes | Soluble ([1]; IPA, vial conc. 106.0 mg/mL (Table 2A)): Yes | Soluble ([1]; IPAc, vial conc. 32.0 mg/mL): Yes | Soluble ([1]; MECN, vial conc. 100.0 mg/mL (Table 2A)): Yes | Soluble ([1]; MEK, vial conc. 56.0 mg/mL): Yes | Soluble ([1]; MTBE, vial conc. 13.0 mg/mL): Yes | Soluble ([1]; MeCN, vial conc. 16.0 mg/mL): Yes | solubility at ambient temperature ([1]; MeCN, dioxane, acetone, MTBE, EtOH, EtOAc, IPAc, IPA, THF, MEK, DMF, AcOH, MeOH, toluene, DCM): good solubility | Soluble ([1]; MeOH, vial conc. 52.0 mg/mL): Yes | Soluble ([1]; MeOH, vial conc. 150.0 mg/mL (Table 2A)): Yes | Soluble ([1]; THF, vial conc. 52.0 mg/mL): Yes | Soluble ([1]; Toluene, vial conc. 56.0 mg/mL): Yes | Soluble ([1]; Water, vial conc. 0.3 mg/mL): Partially | Soluble ([1]; c-Hexane, vial conc. 0.3 mg/mL): No | Solubility ([1]; c-hexane, heptane, and water): limited or no solubility | Solubility ([2]; 1,1,1,3,3,3,hexafluoro-2-propanol, RT): >500 @ RT mg/mL | Solubility ([2]; 1,1,1-trichloroethane, RT): >500 @ RT mg/mL | Solubility ([2]; 1,1,2,2-tetrachloroethane, RT): >500 @ RT mg/mL | Solubility ([2]; 1,4-dioxane, RT): >500 @ RT mg/mL | Solubility ([2]; 1-butanol, RT): >500 @ RT mg/mL | Solubility ([2]; 1-octanol, RT): 90.6 mg/mL | Solubility ([2]; 1-pentanol, 0° C.): 22.8 mg/mL | Solubility ([2]; 1-pentanol, RT): 84.4 mg/mL | Solubility ([2]; 1-pentanol, −20° C.): 2.4 mg/mL | Solubility ([2]; 2,2,2-trifluoroethanol, RT): >500 @ RT mg/mL | Solubility ([2]; 2,2,4-trimethylpentane, RT): 0.37 mg/mL | Solubility ([2]; 2-butanone, RT): >500 @ RT mg/mL | Solubility ([2]; 2-ethoxyethanol, RT): >500 @ RT mg/mL | Solubility ([2]; 4-methyl-2-pentanone, 0° C.): 33.4 mg/mL | Solubility ([2]; 4-methyl-2-pentanone, RT): 38.4 mg/mL | Solubility ([2]; 4-methyl-2-pentanone, −20° C.): 8.5 mg/mL | Solubility ([2]; N-methyl-2-pyrrolidone, RT): >500 @ RT mg/mL | Solubility ([2]; acetone, RT): >500 @ RT mg/mL | Solubility ([2]; anisole, 0° C., supernatant after crystallization): 7.0 mg/mL | Solubility ([2]; anisole, RT, supernatant after crystallization): 9.9 mg/mL | Solubility ([2]; anisole, −20° C., supernatant after crystallization): 6.2 mg/mL | Solubility ([2]; benzyl alcohol, RT): 498.0 mg/mL | Solubility ([2]; butyl acetate, RT): >500 @ RT mg/mL | Solubility ([2]; chlorobenzene, RT): 15.6 mg/mL | Solubility ([2]; cumene, RT): 4.9 mg/mL | Solubility ([2]; di(ethylene glycol), RT): 374.8 mg/mL | Solubility ([2]; dibutyl ether, RT): 3.1 mg/mL | Solubility ([2]; dichloromethane, RT): >500 @ RT mg/mL | Solubility ([2]; diethyl ether, RT): 9.5 mg/mL | Solubility ([2]; diethylamine, RT): >500 @ RT mg/mL | Solubility ([2]; diisopropyl ether, RT): 4.2 mg/mL | Solubility ([2]; dimethylformamide, RT): >500 @ RT mg/mL | Solubility ([2]; dimethylsulfoxide, RT): 252.5 mg/mL | Solubility ([2]; ethanol, RT): >500 @ RT mg/mL | Solubility ([2]; ethanolamine, RT): >500 @ RT mg/mL | Comments: PX-866 in supernatant ([2]; ethanolamine, RT, solution turned dark orange): no PX-866 detected in | Solubility ([2]; ethyl acetate, RT): >500 @ RT mg/mL | Solubility ([2]; ethyl formate, RT): >500 @ RT mg/mL | Solubility ([2]; ethylene glycol, RT): 135.9 mg/mL | Solubility ([2]; glycerol, RT): 12.6 mg/mL | Solubility ([2]; heptanes, RT): 0.88 mg/mL | Solubility ([2]; hexanes, RT): 0.31 mg/mL | Solubility ([2]; isopentanol, RT): 228.2 mg/mL | Solubility ([2]; isopropyl acetate, RT): >500 @ RT mg/mL | Solubility ([2]; isopropyl alcohol, RT): >500 @ RT mg/mL | Solubility ([2]; m-xylene, RT): 4.5 mg/mL | Solubility ([2]; methanol, RT): >500 @ RT mg/mL | Solubility ([2]; methyl acetate, RT): >500 @ RT mg/mL | Solubility ([2]; methyl t-butyl ether, RT): 41.0 mg/mL | Solubility ([2]; methyltetrahydrofuran, RT): >500 @ RT mg/mL | Solubility ([2]; nitromethane, RT): >500 @ RT mg/mL | Solubility ([2]; o-xylene, 0° C., supernatant after crystallization): 7.3 mg/mL | Solubility ([2]; o-xylene, RT, supernatant after crystallization): 5.5 mg/mL | Solubility ([2]; o-xylene, −20° C., supernatant after crystallization): 5.7 mg/mL | Solubility ([2]; p-xylene, RT): 1.0 mg/mL | Solubility ([2]; pentane, RT): 0.79 mg/mL | Solubility ([2]; perfluorohexane, RT): 0.28 mg/mL | Solubility ([2]; propyl acetate, 0° C.): 54.8 mg/mL | Solubility ([2]; propyl acetate, RT): 84.6 mg/mL | Solubility ([2]; propyl acetate, −20° C.): 18.6 mg/mL | Solubility ([2]; sec-butyl ether, RT): 1.3 mg/mL | Solubility ([2]; t-Butanol, 30° C.): 340.0 mg/mL | Solubility ([2]; tetrahydrofuran, RT): >500 @ RT mg/mL | Solubility ([2]; toluene, 0° C., supernatant after crystallization): 2.7 mg/mL | Solubility ([2]; toluene, RT, supernatant after crystallization): 5.2 mg/mL | Solubility ([2]; toluene, −20° C., supernatant after crystallization): 2.6 mg/mL | Solubility ([2]; water, RT): 3.5 mg/mL | Comments: decomposition observed by HPLC ([2]; water, RT, solubility sample): Slightly soluble, significant decomposition | PX-866 concentration in supernatant ([3]; 4° C.): 7.0 mg/mL | PX-866 concentration in supernatant ([3]; RT): 9.9 mg/mL | PX-866 concentration in supernatant ([3]; −20° C.): 6.2 mg/mL | stability in solution [4]: poor stability | purity after water slurry [5]: notable decrease in PX-866 purity | inhibition of PI-3K [6]: irreversibly inhibits | efficacy in human trials [7]: has shown efficacy | efficacy in pulmonary fibrosis (pulmonary fibrosis): has shown efficacy

COC[C@H]1OC(=O)c2coc3c2[C@@]1(C)C1=C(C3=O)[C@@H]2CCC(=O)[C@@]2(C)C[C@H]1OC(C)=O [wortmannin]
Solubility ([2]; in toluene, anisole, and o-xylene): low | inhibition of PI-3K [6]: irreversibly inhibits | inhibition of PI-3 kinase isoforms ([6]; p110α, p110β, p110δ and p110γ): inhibited equally | stability in aqueous solution [8]: subject to decomposition
